From ChEMBL document CHEMBL2396528, “Synthesis of new conjugated coumarin-benzimidazole hybrids and their anticancer activity” (2013)

Tested on: MOLT-4
Test: Cytotoxicity against human MOLT4 cells assessed as growth inhibition at 10 uM after 48 hrs by SRB assay relative to control
Type: functional
Conditions: MOLT-4, 48 h, read-out: GI
For `O=c1oc2cc(N3CCOCC3)ccc2cc1-c1nc2ccccc2[nH]1`, the inhibition of growth at 10 µM was < 20%.

Tested on: SF-539
Test: Cytotoxicity against human SF539 cells assessed as growth inhibition at 10 uM after 48 hrs by SRB assay relative to control
Type: functional
Conditions: SF-539, 48 h, read-out: GI
With `O=c1oc2cc(N3CCOCC3)ccc2cc1-c1nc2ccccc2[nH]1` the inhibition of growth at 10 µM was < 20%.

Tested on: OVCAR-4
Test: Cytotoxicity against human OVCAR4 cells assessed as growth inhibition at 10 uM after 48 hrs by SRB assay relative to control
Type: functional
Conditions: OVCAR-4, 48 h, read-out: GI
For `O=c1oc2cc(N3CCOCC3)ccc2cc1-c1nc2ccccc2[nH]1`, the inhibition of growth at 10 µM was < 20%.

Tested on: HCC 2998
Test: Cytotoxicity against human HCC2998 cells assessed as growth inhibition at 10 uM after 48 hrs by SRB assay relative to control
Type: functional
Conditions: HCC 2998, 48 h, read-out: GI
With `O=c1oc2cc(N3CCOCC3)ccc2cc1-c1nc2ccccc2[nH]1` the inhibition of growth at 10 µM was < 20%.

Tested on: ACHN
Test: Cytotoxicity against human ACHN cells assessed as growth inhibition at 10 uM after 48 hrs by SRB assay relative to control
Type: functional
Conditions: read-out: GI
For `O=c1oc2cc(N3CCOCC3)ccc2cc1-c1nc2ccccc2[nH]1`, the inhibition of growth at 10 µM was < 20%.

Tested on: not listed separately
Test: Cytotoxicity against human NCI-ADR-RES cells assessed as growth inhibition at 10 uM after 48 hrs by SRB assay relative to control
Type: functional
Conditions: read-out: GI
In the case of `O=c1oc2cc(N3CCOCC3)ccc2cc1-c1nc2ccccc2[nH]1`, the inhibition of growth at 10 µM is reported as < 20%.

Tested on: CCRF-CEM
Test: Cytotoxicity against human CCRF-CEM cells assessed as growth inhibition at 10 uM after 48 hrs by SRB assay relative to control
Type: functional
Conditions: read-out: GI
With `O=c1oc2cc(N3CCOCC3)ccc2cc1-c1nc2ccccc2[nH]1` the inhibition of growth at 10 µM was < 20%.

Tested on: OVCAR-8
Test: Cytotoxicity against human OVCAR8 cells assessed as growth inhibition at 10 uM after 48 hrs by SRB assay relative to control
Type: functional
Conditions: OVCAR-8, 48 h, read-out: GI
For `O=c1oc2cc(N3CCOCC3)ccc2cc1-c1nc2ccccc2[nH]1`, the inhibition of growth at 10 µM was < 20%.

Tested on: A498
Test: Cytotoxicity against human A498 cells assessed as growth inhibition at 10 uM after 48 hrs by SRB assay relative to control
Type: functional
Conditions: A498, 48 h, read-out: GI
In the case of `O=c1oc2cc(N3CCOCC3)ccc2cc1-c1nc2ccccc2[nH]1`, the inhibition of growth at 10 µM is reported as < 20%.

Tested on: NCI-H23
Test: Cytotoxicity against human NCI-H23 cells assessed as growth inhibition at 10 uM after 48 hrs by SRB assay relative to control
Type: functional
Conditions: NCI-H23, 48 h, read-out: GI
For `O=c1oc2cc(N3CCOCC3)ccc2cc1-c1nc2ccccc2[nH]1`, the inhibition of growth at 10 µM was < 20%.

Tested on: UACC-62
Test: Cytotoxicity against human UACC62 cells assessed as growth inhibition at 10 uM after 48 hrs by SRB assay relative to control
Type: functional
Conditions: UACC-62, 48 h, read-out: GI
For `O=c1oc2cc(N3CCOCC3)ccc2cc1-c1nc2ccccc2[nH]1`, the inhibition of growth at 10 µM was < 20%.

Tested on: HCT-116
Test: Cytotoxicity against human HCT116 cells assessed as growth inhibition at 10 uM after 48 hrs by SRB assay relative to control
Type: functional
Conditions: HCT-116, 48 h, read-out: GI
In the case of `O=c1oc2cc(N3CCOCC3)ccc2cc1-c1nc2ccccc2[nH]1`, the inhibition of growth at 10 µM is reported as < 20%.

Tested on: UO-31
Test: Cytotoxicity against human UO31 cells assessed as growth inhibition at 10 uM after 48 hrs by SRB assay relative to control
Type: functional
Conditions: UO-31, 48 h, read-out: GI
For `O=c1oc2cc(N3CCOCC3)ccc2cc1-c1nc2ccccc2[nH]1`, the inhibition of growth at 10 µM was 24.9%.

Tested on: SW-620
Test: Cytotoxicity against human SW620 cells assessed as growth inhibition at 10 uM after 48 hrs by SRB assay relative to control
Type: functional
Conditions: SW-620, 48 h, read-out: GI
With `O=c1oc2cc(N3CCOCC3)ccc2cc1-c1nc2ccccc2[nH]1` the inhibition of growth at 10 µM was < 20%.

Tested on: HOP-62
Test: Cytotoxicity against human HOP62 cells assessed as growth inhibition at 10 uM after 48 hrs by SRB assay relative to control
Type: functional
Conditions: HOP-62, 48 h, read-out: GI
For `O=c1oc2cc(N3CCOCC3)ccc2cc1-c1nc2ccccc2[nH]1`, the inhibition of growth at 10 µM was < 20%.

Tested on: PC-3
Test: Cytotoxicity against human PC3 cells assessed as growth inhibition at 10 uM after 48 hrs by SRB assay relative to control
Type: functional
Conditions: PC-3, 48 h, read-out: GI
For `O=c1oc2cc(N3CCOCC3)ccc2cc1-c1nc2ccccc2[nH]1`, the inhibition of growth at 10 µM was < 20%.

Tested on: DU-145
Test: Cytotoxicity against human DU145 cells assessed as growth inhibition at 10 uM after 48 hrs by SRB assay relative to control
Type: functional
Conditions: DU-145, 48 h, read-out: GI
With `O=c1oc2cc(N3CCOCC3)ccc2cc1-c1nc2ccccc2[nH]1` the inhibition of growth at 10 µM was < 20%.

Tested on: Malme-3M
Test: Cytotoxicity against human MALME-3M cells assessed as growth inhibition at 10 uM after 48 hrs by SRB assay relative to control
Type: functional
Conditions: read-out: GI
For `O=c1oc2cc(N3CCOCC3)ccc2cc1-c1nc2ccccc2[nH]1`, the inhibition of growth at 10 µM was < 20%.

Tested on: SF-268
Test: Cytotoxicity against human SF268 cells assessed as growth inhibition at 10 uM after 48 hrs by SRB assay relative to control
Type: functional
Conditions: SF-268, 48 h, read-out: GI
For `O=c1oc2cc(N3CCOCC3)ccc2cc1-c1nc2ccccc2[nH]1`, the inhibition of growth at 10 µM was < 20%.

Tested on: SN12C
Test: Cytotoxicity against human SN12C cells assessed as growth inhibition at 10 uM after 48 hrs by SRB assay relative to control
Type: functional
Conditions: read-out: GI
With `O=c1oc2cc(N3CCOCC3)ccc2cc1-c1nc2ccccc2[nH]1` the inhibition of growth at 10 µM was < 20%.

Tested on: M14
Test: Cytotoxicity against human M14 cells assessed as growth inhibition at 10 uM after 48 hrs by SRB assay relative to control
Type: functional
Conditions: M14, 48 h, read-out: GI
With `O=c1oc2cc(N3CCOCC3)ccc2cc1-c1nc2ccccc2[nH]1` the inhibition of growth at 10 µM was < 20%.

Tested on: HCT-15
Test: Cytotoxicity against human HCT15 cells assessed as growth inhibition at 10 uM after 48 hrs by SRB assay relative to control
Type: functional
Conditions: HCT-15, 48 h, read-out: GI
With `O=c1oc2cc(N3CCOCC3)ccc2cc1-c1nc2ccccc2[nH]1` the inhibition of growth at 10 µM was < 20%.

Tested on: MDA-MB-468
Test: Cytotoxicity against human MDA-MB-468 cells assessed as growth inhibition at 10 uM after 48 hrs by SRB assay relative to control
Type: functional
Conditions: MDA-MB-468, 48 h, read-out: GI
For `O=c1oc2cc(N3CCOCC3)ccc2cc1-c1nc2ccccc2[nH]1`, the inhibition of growth at 10 µM was < 20%.

Tested on: SK-OV-3
Test: Cytotoxicity against human SKOV3 cells assessed as growth inhibition at 10 uM after 48 hrs by SRB assay relative to control
Type: functional
Conditions: SK-OV-3, 48 h, read-out: GI
In the case of `O=c1oc2cc(N3CCOCC3)ccc2cc1-c1nc2ccccc2[nH]1`, the inhibition of growth at 10 µM is reported as < 20%.

Tested on: HL-60(TB)
Test: Cytotoxicity against human HL-60(TB) cells assessed as growth inhibition at 10 uM after 48 hrs by SRB assay relative to control
Type: functional
Conditions: HL-60, 48 h, read-out: GI
With `O=c1oc2cc(N3CCOCC3)ccc2cc1-c1nc2ccccc2[nH]1` the inhibition of growth at 10 µM was < 20%.

Tested on: HOP-92
Test: Cytotoxicity against human HOP92 cells assessed as growth inhibition at 10 uM after 48 hrs by SRB assay relative to control
Type: functional
Conditions: HOP-92, 48 h, read-out: GI
In the case of `O=c1oc2cc(N3CCOCC3)ccc2cc1-c1nc2ccccc2[nH]1`, the inhibition of growth at 10 µM is reported as 20.7%.

Tested on: IGROV-1
Test: Cytotoxicity against human IGROV1 cells assessed as growth inhibition at 10 uM after 48 hrs by SRB assay relative to control
Type: functional
Conditions: IGROV-1, 48 h, read-out: GI
In the case of `O=c1oc2cc(N3CCOCC3)ccc2cc1-c1nc2ccccc2[nH]1`, the inhibition of growth at 10 µM is reported as < 20%.

Tested on: MCF7
Test: Cytotoxicity against human MCF7 cells assessed as growth inhibition at 10 uM after 48 hrs by SRB assay relative to control
Type: functional
Conditions: MCF7, 48 h, read-out: GI
For `O=c1oc2cc(N3CCOCC3)ccc2cc1-c1nc2ccccc2[nH]1`, the inhibition of growth at 10 µM was 62.1%.

Tested on: Hs-578T
Test: Cytotoxicity against human Hs578T cells assessed as growth inhibition at 10 uM after 48 hrs by SRB assay relative to control
Type: functional
Conditions: read-out: GI
With `O=c1oc2cc(N3CCOCC3)ccc2cc1-c1nc2ccccc2[nH]1` the inhibition of growth at 10 µM was < 20%.

Tested on: K562
Test: Cytotoxicity against human K562 cells assessed as growth inhibition at 10 uM after 48 hrs by SRB assay relative to control
Type: functional
Conditions: K562, 48 h, read-out: GI
For `O=c1oc2cc(N3CCOCC3)ccc2cc1-c1nc2ccccc2[nH]1`, the inhibition of growth at 10 µM was < 20%.

Tested on: SNB-75
Test: Cytotoxicity against human SNB75 cells assessed as growth inhibition at 10 uM after 48 hrs by SRB assay relative to control
Type: functional
Conditions: SNB-75, 48 h, read-out: GI
In the case of `O=c1oc2cc(N3CCOCC3)ccc2cc1-c1nc2ccccc2[nH]1`, the inhibition of growth at 10 µM is reported as < 20%.

Tested on: U-251
Test: Cytotoxicity against human U251 cells assessed as growth inhibition at 10 uM after 48 hrs by SRB assay relative to control
Type: functional
Conditions: U-251, 48 h, read-out: GI
In the case of `O=c1oc2cc(N3CCOCC3)ccc2cc1-c1nc2ccccc2[nH]1`, the inhibition of growth at 10 µM is reported as < 20%.

Tested on: RPMI-8226
Test: Cytotoxicity against human RPMI8226 cells assessed as growth inhibition at 10 uM after 48 hrs by SRB assay relative to control
Type: functional
Conditions: RPMI-8226, 48 h, read-out: GI
With `O=c1oc2cc(N3CCOCC3)ccc2cc1-c1nc2ccccc2[nH]1` the inhibition of growth at 10 µM was < 20%.

Tested on: MDA-MB-231
Test: Cytotoxicity against human MDA-MB-231 cells assessed as growth inhibition at 10 uM after 48 hrs by SRB assay relative to control
Type: functional
Conditions: MDA-MB-231, 48 h, read-out: GI
With `O=c1oc2cc(N3CCOCC3)ccc2cc1-c1nc2ccccc2[nH]1` the inhibition of growth at 10 µM was < 20%.

Tested on: NCI-H226
Test: Cytotoxicity against human NCI-H226 cells assessed as growth inhibition at 10 uM after 48 hrs by SRB assay relative to control
Type: functional
Conditions: NCI-H226, 48 h, read-out: GI
With `O=c1oc2cc(N3CCOCC3)ccc2cc1-c1nc2ccccc2[nH]1` the inhibition of growth at 10 µM was < 20%.
